Data on 23 compounds can be found in patent US20230065740A1, “CYCLIN-DEPENDENT KINASE INHIBITORS” (SPV THERAPEUTICS INC., priority 2018, published 2023).

pIC50: −log10 of the molar value. “And” between values parts separate entries of the source, which are not always exact repeats. Equal values may be shown once. Read-outs that look alike come from different tables or passages of the source.

One assay has as its target CDK4-CYCLIND1 (Homo sapiens, UniProt P11802). In words: Microfluidic LabChip kinase inhibition assay, CDK4-CyclinD1. Conditions: 200 μM ATP.
A further assay deals with T1, CDK6-CYCLIND3 (Homo sapiens, UniProt Q00534).
T1 construct: purchased Carna
In words: Microfluidic LabChip kinase inhibition assay, CDK6-CyclinD3. The assay is classed as biochemical. The conditions noted are these: 300 μM ATP.

Where [1] appears, read: CDK4 IC50 (μM), Table 2, 1 nM enzyme.
The mark [2] stands for this setting: Table 2, 2 nM enzyme, read-out: CDK6 IC50.
The mark [3] stands for this setting: CDK4 CyclinD1 IC50 (μM), Table 3a, second value in parentheses on the next line.
The mark [4] stands for this setting: CDK4 CyclinD1 IC50 (μM), Table 3b, second value in parentheses on the next line.
Setting [5] is: Table 3a, read-out: CDK6 CyclinD3 IC50.
[6] abbreviates: Table 3b, read-out: CDK6 CyclinD3 IC50.

Sequence of CDK4-CYCLIND1 (P11802 whole entry): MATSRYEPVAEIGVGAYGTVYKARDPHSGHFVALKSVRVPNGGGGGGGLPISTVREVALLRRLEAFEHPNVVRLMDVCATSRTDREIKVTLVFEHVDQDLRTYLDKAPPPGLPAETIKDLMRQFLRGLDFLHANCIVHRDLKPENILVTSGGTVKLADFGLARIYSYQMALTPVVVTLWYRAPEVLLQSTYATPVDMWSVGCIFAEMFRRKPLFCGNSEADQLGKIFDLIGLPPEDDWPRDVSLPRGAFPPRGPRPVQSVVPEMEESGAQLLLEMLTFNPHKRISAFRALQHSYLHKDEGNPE
Sequence of CDK4-CYCLIND1 (P24385 whole entry partner): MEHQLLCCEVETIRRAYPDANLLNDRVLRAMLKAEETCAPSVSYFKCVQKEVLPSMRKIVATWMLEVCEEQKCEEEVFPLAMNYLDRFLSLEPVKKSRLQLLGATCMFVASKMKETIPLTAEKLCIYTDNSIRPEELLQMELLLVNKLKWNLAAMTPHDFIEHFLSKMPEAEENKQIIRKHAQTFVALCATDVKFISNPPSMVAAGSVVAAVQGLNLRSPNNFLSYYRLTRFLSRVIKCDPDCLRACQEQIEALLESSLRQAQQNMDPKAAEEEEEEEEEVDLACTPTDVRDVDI
T1 sequence (Q00534 whole entry): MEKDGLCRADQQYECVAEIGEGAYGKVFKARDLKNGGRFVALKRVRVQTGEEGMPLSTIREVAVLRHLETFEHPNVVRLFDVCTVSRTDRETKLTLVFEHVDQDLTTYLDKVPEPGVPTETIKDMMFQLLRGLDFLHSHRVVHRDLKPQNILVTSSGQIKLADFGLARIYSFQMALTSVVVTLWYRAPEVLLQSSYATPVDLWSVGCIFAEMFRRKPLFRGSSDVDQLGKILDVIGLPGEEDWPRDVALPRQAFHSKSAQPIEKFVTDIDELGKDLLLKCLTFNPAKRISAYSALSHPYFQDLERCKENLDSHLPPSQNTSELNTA
T1 sequence (P30281 whole entry partner): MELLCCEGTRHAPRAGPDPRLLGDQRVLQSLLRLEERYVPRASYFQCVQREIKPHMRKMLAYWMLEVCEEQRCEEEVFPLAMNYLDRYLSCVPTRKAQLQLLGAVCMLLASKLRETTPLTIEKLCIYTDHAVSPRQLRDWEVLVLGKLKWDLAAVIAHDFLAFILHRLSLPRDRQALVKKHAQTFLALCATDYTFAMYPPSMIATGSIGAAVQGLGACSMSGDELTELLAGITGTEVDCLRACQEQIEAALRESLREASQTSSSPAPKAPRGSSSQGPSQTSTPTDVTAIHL

In general, IC50 refers to the point on the concentration scale where inhibition reaches its midpoint. The pIC50 is the IC50 on a negative log10 scale, so that one unit is a factor of ten. As to `CC(C)N1CCN(c2ccc(Nc3ncc4c(n3)N(C3CCCC3)C3(CC(=O)NC3=O)C4)cn2)CC1` (stereo not shown) [Compound C85, 7′-cyclopentyl-2′-((6-(4-isopropylpiperazin-1-yl)pyridin-3-yl)amino)-5′,7′-dihydrospiro[pyrrolidine-3,6′-pyrrolo[2,3-d]pyrimidine]-2,5-dione], the IC50 at CDK4-CYCLIND1 (setting [1]) stood at 0.0489 µM. Moreover, the negative logarithm of the IC50 (pIC50) on CDK6-CYCLIND3 (setting [2]) is 6.67.

Compound `O=C1CC2(Cc3cnc(Nc4ccc(N5CCOCC5)c(F)c4)nc3N2C2CCCC2)C(=O)N1` (stereo not shown) [Compound C86, 7′-cyclopentyl-2′-((3-fluoro-4-morpholinophenyl)amino)-5′,7′-dihydrospiro[pyrrolidine-3,6′-pyrrolo[2,3-d]pyrimidine]-2,5-dione] registered an IC50 against CDK4-CYCLIND1 (setting [1]) of 0.101 µM. Also, on CDK6-CYCLIND3 (setting [2]), the pIC50 was 6.34.

Take `CN1CCN(c2ccc(Nc3ncc4c(n3)N(C3CCCC3)C3(CC(=O)NC3=O)C4)c(F)c2)CC1` (stereo not shown) [Compound C87, 7′-cyclopentyl-2′-((2-fluoro-4-(4-methylpiperazin-1-yl)phenyl)amino)-5′,7′-dihydrospiro[pyrrolidine-3,6′-pyrrolo[2,3-d]pyrimidine]-2,5-dione]: half-maximal inhibition against CDK4-CYCLIND1 (setting [1]) (IC50) required 14.9 µM. The negative logarithm of the IC50 (pIC50) on CDK6-CYCLIND3 (setting [2]) was 4.11.

The compound `CN(C)CCOc1ccc(Nc2ncc3c(n2)N(C2CCCC2)C2(CC(=O)NC2=O)C3)cn1` (stereo not shown) [Compound C88, 7′-cyclopentyl-2′-((6-(2-(dimethylamino)ethoxy)pyridin-3-yl)amino)-5′,7′-dihydrospiro[pyrrolidine-3,6′-pyrrolo[2,3-d]pyrimidine]-2,5-dione] returned an IC50 against CDK4-CYCLIND1 (setting [1]) of 0.097 µM. Further, the pIC50 at CDK6-CYCLIND3 (setting [2]) is 6.44.

`CN(C)CCOc1ccc(Nc2ncc3c(n2)N(C2CCCC2)C2(CC(=O)NC2=O)C3)cc1` (stereo not shown) [Compound C89, 7′-cyclopentyl-2′-((4-(2-(dimethylamino)ethoxy)phenyl)amino)-5′,7′-dihydrospiro[pyrrolidine-3,6′-pyrrolo[2,3-d]pyrimidine]-2,5-dione] yielded an IC50 on CDK4-CYCLIND1 (setting [1]) of 0.143 µM. At CDK6-CYCLIND3 (setting [2]), the negative logarithm of the IC50 (pIC50) is 6.25.

Consider `O=C1CC2(Cc3cnc(Nc4ccc(OCCN5CCCC5)nc4)nc3N2C2CCCC2)C(=O)N1` (stereo not shown) [Compound C90, 7′-cyclopentyl-2′-((6-(2-(pyrrolidin-1-yl)ethoxy)pyridin-3-yl)amino)-5′,7′-dihydrospiro[pyrrolidine-3,6′-pyrrolo[2,3-d]pyrimidine]-2,5-dione], for which the IC50 on CDK4-CYCLIND1 (setting [1]) was 0.072 µM. Moreover, at CDK6-CYCLIND3 (setting [2]), the pIC50 was 6.59.

For `O=C1CC2(Cc3cnc(Nc4ccc(OCCN5CCCC5)c(F)c4)nc3N2C2CCCC2)C(=O)N1` (stereo not shown) [Compound C91, 7′-cyclopentyl-2′-((3-fluoro-4-(2-(pyrrolidin-1-yl)ethoxy)phenyl)amino)-5′,7′-dihydrospiro[pyrrolidine-3,6′-pyrrolo[2,3-d]pyrimidine]-2,5-dione], it took 0.0554 µM to reach half-maximal inhibition on CDK4-CYCLIND1 (setting [1]) (IC50). For the same compound, the pIC50 on CDK6-CYCLIND3 (setting [2]) was 6.62.

For the compound `CN(C)CCOc1ccc(Nc2ncc3c(n2)N(C2CCCC2)C2(CC(=O)NC2=O)C3)nc1` (stereo not shown) [Compound C92, 7′-cyclopentyl-2′-((5-(2-(dimethylamino)ethoxy)pyridin-2-yl)amino)-5′,7′-dihydrospiro[pyrrolidine-3,6′-pyrrolo[2,3-d]pyrimidine]-2,5-dione], half-maximal inhibition against CDK4-CYCLIND1 (setting [1]) (IC50) required 0.0831 µM. Also, the negative-log IC50 (pIC50) at CDK6-CYCLIND3 (setting [2]) was 7.02.

On to `O=C1CC2(Cc3cnc(Nc4ccc(C5=CCNCC5)cn4)nc3N2C2CCCC2)C(=O)N1` (stereo not shown) [Compound C93, 7′-cyclopentyl-2′-((1′,2′,3′,6′-tetrahydro-[3,4′-bipyridin]-6-yl)amino)-5′,7′-dihydrospiro[pyrrolidine-3,6′-pyrrolo[2,3-d]pyrimidine]-2,5-dione], for which the half-maximal inhibitory concentration (IC50) against CDK4-CYCLIND1 (setting [1]) came to 6.84 µM. Also, at CDK6-CYCLIND3 (setting [2]), the pIC50 is 4.50.

In the case of `CC(C)N1CC=C(c2ccc(Nc3ncc4c(n3)N(C3CCCC3)C3(CC(=O)NC3=O)C4)nc2)CC1` (stereo not shown) [Compound C94, 7′-cyclopentyl-2′-((1′-isopropyl-1′,2′,3′,6′-tetrahydro-[3,4′-bipyridin]-6-yl)amino)-5′,7′-dihydrospiro[pyrrolidine-3,6′-pyrrolo[2,3-d]pyrimidine]-2,5-dione], the IC50 against CDK4-CYCLIND1 (setting [1]) came out at 0.0462 µM. For the same compound, the pIC50 on CDK6-CYCLIND3 (setting [2]) is 7.34.

On to `O=C1NCCC12Cc1cnc(Nc3ccc(N4CCC(N5CCOCC5)CC4)cc3)nc1N2C1CCCC1` (stereo not shown) [Compound C95, 7′-cyclopentyl-2′-((4-(4-morpholinopiperidin-1-yl)phenyl)amino)-5′,7′-dihydrospiro[pyrrolidine-3,6′-pyrrolo[2,3-d]pyrimidin]-2-one], for which the IC50 on CDK4-CYCLIND1 (setting [1]) came to 0.273 µM. At CDK6-CYCLIND3 (setting [2]), the pIC50 is 6.00.

Regarding `O=C1NCCC12Cc1cnc(Nc3ccc(N4CCC(N5CCOCC5)CC4)nc3)nc1N2C1CCCC1` (stereo not shown) [Compound C96, 7′-cyclopentyl-2′-((6-(4-morpholinopiperidin-1-yl)pyridin-3-yl)amino)-5′,7′-dihydrospiro[pyrrolidine-3,6′-pyrrolo[2,3-d]pyrimidin]-2-one], it took 0.142 µM to reach half-maximal inhibition on CDK4-CYCLIND1 (setting [1]) (IC50). In addition, the pIC50 on CDK6-CYCLIND3 (setting [2]) was 6.31.

As to `O=C1NCCC12Cc1cnc(Nc3ccc(N4CCC(N5CCOCC5)CC4)c(F)c3)nc1N2C1CCCC1` (stereo not shown) [Compound C97, 7′-cyclopentyl-2′-((3-fluoro-4-(4-morpholinopiperidin-1-yl)phenyl)amino)-5′,7′-dihydrospiro[pyrrolidine-3,6′-pyrrolo[2,3-d]pyrimidin]-2-one], at CDK4-CYCLIND1 (setting [1]), the half-inhibitory concentration (IC50) came out at 0.0747 µM. Moreover, at CDK6-CYCLIND3 (setting [2]), the pIC50 was 6.54.

`CN1CCN(c2ccc(Nc3ncc4c(n3)N(C3CCCC3)C(=O)C43CCNC3=O)nc2)CC1` (stereo not shown) [Compound C100, 7′-cyclopentyl-2′-((5-(4-methylpiperazin-1-yl)pyridin-2-yl)amino)spiro[pyrrolidine-3,5′-pyrrolo[2,3-d]pyrimidine]-2,6′(7′H)-dione] gave a half-maximal inhibitory concentration (IC50) against CDK4-CYCLIND1 (setting [1]) of 13.7 µM. On CDK6-CYCLIND3 (setting [2]), the negative-log IC50 (pIC50) is 4.48.

The compound `CN1CCN(c2ccc(Nc3ncc4c(n3)N(C3CCCC3)C(=O)C43CCNC3=O)cc2)CC1` (stereo not shown) [Compound C101, 7′-cyclopentyl-2′-((4-(4-methylpiperazin-1-yl)phenyl)amino)spiro[pyrrolidine-3,5′-pyrrolo[2,3-d]pyrimidine]-2,6′(7′H)-dione] yielded an IC50 against CDK4-CYCLIND1 (setting [1]) of 21 µM. On CDK6-CYCLIND3 (setting [2]), the pIC50 is 4.36.

Compound `O=C1NCCC12C(=O)N(C1CCCC1)c1nc(Nc3ccc(N4CCNCC4)c(F)c3)ncc12` (stereo not shown) [Compound C102, 7′-cyclopentyl-2′-((3-fluoro-4-(piperazin-1-yl)phenyl)amino)spiro[pyrrolidine-3,5′-pyrrolo[2,3-d]pyrimidine]-2,6′(7′H)-dione] registered a 50% inhibitory concentration (IC50) against CDK4-CYCLIND1 (setting [1]) of 21.8 µM. Besides, on CDK6-CYCLIND3 (setting [2]), the pIC50 is 4.59.

`CN1CCN(c2ccc(Nc3ncc4c(n3)N(C3CCCC3)C(=O)C43CCNC3=O)cc2F)CC1` (stereo not shown) [Compound C103, 7′-cyclopentyl-2′-((3-fluoro-4-(4-methylpiperazin-1-yl)phenyl)amino)spiro[pyrrolidine-3,5′-pyrrolo[2,3-d]pyrimidine]-2,6′(7′H)-dione]: on CDK4-CYCLIND1 (setting [1]), the IC50 came out at 20 µM. The pIC50 at CDK6-CYCLIND3 (setting [2]) was 4.29.

`CN(C)[C@H]1CCN(c2ccc(Nc3ncc4c(n3)N(C3CCCC3)C(=O)C43CCNC3=O)cc2F)C1` (stereo partly drawn) [Compound C105, 7′-cyclopentyl-2′-((4-((S)-3-(dimethylamino)pyrrolidin-1-yl)-3-fluorophenyl)amino)spiro[pyrrolidine-3,5′-pyrrolo[2,3-d]pyrimidine]-2,6′(7′H)-dione]: the IC50 on CDK4-CYCLIND1 (setting [1]) is 11.8 µM. In addition, the pIC50 at CDK6-CYCLIND3 (setting [2]) was 4.53.

With `O=C1NCCC12C(=O)N(C1CCCC1)c1nc(Nc3ccc(N4CCC(N5CCOCC5)CC4)c(F)c3)ncc12` (stereo not shown) [Compound C106, 7′-cyclopentyl-2′-((3-fluoro-4-(4-morpholinopiperidin-1-yl)phenyl)amino)spiro[pyrrolidine-3,5′-pyrrolo[2,3-d]pyrimidine]-2,6′(7′H)-dione], half-maximal inhibition against CDK4-CYCLIND1 (setting [1]) (IC50) was put at 7.35 µM. In addition, on CDK6-CYCLIND3 (setting [2]), the negative-log IC50 (pIC50) is 4.83.

With `O=C1NCCC12Cc1cnc(Nc3ccc(N4CC5(CNC5)C4)c(F)c3)nc1N2C1CCCC1` (stereo not shown) [Compound C107, 7′-cyclopentyl-2′-((3-fluoro-4-(2,6-diazaspiro[3.3]heptan-2-yl)phenyl)amino)-5′,7′-dihydrospiro[pyrrolidine-3,6′-pyrrolo[2,3-d]pyrimidin]-2-one], half-maximal inhibition against CDK4-CYCLIND1 (setting [1]) (IC50) was put at 0.0866 µM. Besides, the negative-log IC50 (pIC50) at CDK6-CYCLIND3 (setting [2]) was 6.47.

Turning to `CN1CCN(c2ccc(Nc3ncc4c(n3)N(C3CCCCC3)C3(CCNC3=O)C4)cc2)CC1` (stereo not shown) [Compound C199, 7′-cyclohexyl-2′-((4-(4-methylpiperazin-1-yl)phenyl)amino)-5′,7′-dihydrospiro[pyrrolidine-3,6′-pyrrolo[2,3-d]pyrimidin]-2-one], the IC50 at CDK4-CYCLIND1 (setting [3]) and on CDK4-CYCLIND1 (setting [4]) was 0.0332 µM each time. For the same compound, the pIC50 at CDK6-CYCLIND3 (setting [5]) and at CDK6-CYCLIND3 (setting [6]) was 6.99 throughout.

Turning to `CN1CCN(c2ccc(Nc3ncc4c(n3)N(C3CCCCC3)C3(CCNC3=O)C4)cc2F)CC1` (stereo not shown) [Compound C200, 7′-cyclohexyl-2′-((3-fluoro-4-(4-methylpiperazin-1-yl)phenyl)amino)-5′,7′-dihydrospiro[pyrrolidine-3,6′-pyrrolo[2,3-d]pyrimidin]-2-one], the concentration for half-maximal inhibition (IC50) on CDK4-CYCLIND1 (setting [3]) was 0.0138 µM and 0.0102 µM; on CDK4-CYCLIND1 (setting [4]), 0.0138 µM and 0.0102 µM. Moreover, the negative logarithm of the IC50 (pIC50) at CDK6-CYCLIND3 (setting [5]) and on CDK6-CYCLIND3 (setting [6]) was 7.16 throughout.

In the case of `CN1CCN(c2ccc(Nc3ncc4c(n3)N(C3CCCCC3)C3(CCNC3=O)C4)cn2)CC1` (stereo not shown) [Compound C201, 7′-cyclohexyl-2′-((6-(4-methylpiperazin-1-yl)pyridin-3-yl)amino)-5′,7′-dihydrospiro[pyrrolidine-3,6′-pyrrolo[2,3-d]pyrimidin]-2-one], the IC50 on CDK4-CYCLIND1 (setting [3]) and at CDK4-CYCLIND1 (setting [4]) was 0.0393 µM in each case. Further, the pIC50 on CDK6-CYCLIND3 (setting [5]) and at CDK6-CYCLIND3 (setting [6]) was 6.94 in each case.
